Among the data in ChEMBL document CHEMBL5725469, “C17-aryl substituted betulinic acid analogs” (2018) are EC50 values, retold here.

Bounds are passed on as bounds.

The test is described as follows: HIV cell culture assay: MT-2 cells and 293T cells were obtained from the NIH AIDS Research and Reference Reagent Program. MT-2 cells were propagated in RPMI 1640 media supplemented with 10% heat inactivated fetal bovine serum, 100 μg/mL penicillin G and up to 100 units/mL streptomycin. The 293T cells were propagated in DMEM media supplemented with 10% heat inactivated fetal bovine serum (FBS), 100 units/mL penicillin G and 100 μg/mL streptomycin. The proviral DNA clone of NL4-3 was obtained from the NIH AIDS Research and Reference Reagent Program. A recombinant NL4-3 virus, in which a section of the nef gene from NL4-3 was replaced with the Renilla luciferase gene, was used as a reference virus. In addition, residue Gag P373 was converted to P373S. Briefly, the recombinant virus was prepared by transfection of the altered proviral clone of NL4-3. Transfections were performed in 293T cells using LipofectAMINE PLUS from Invitrogen (Carlsbad, Calif.), according to manufacturer's instruction. The virus was titered in MT-2 cells using luciferase enzyme activity as a marker. Luciferase was quantitated using the Dual Luciferase kit from Promega (Madison, Wis.), with modifications to the manufacturer's protocol. The diluted Passive Lysis solution was pre-mixed with the re-suspended Luciferase Assay Reagent and the re-suspended Stop & Glo Substrate (2:1:1 ratio). Fifty (50) μL of the mixture was added to each aspirated well on assay plates and luciferase activity was measured immediately on a Wallac TriLux (Perkin-Elmer). Antiviral activities of inhibitors toward the recombinant virus were quantified by measuring luciferase activity in cells infected for 4-5 days with NLRluc recombinants in the presence serial dilutions of the inhibitor. Format: cell-based.
Regarding `C=C(C)[C@@H]1CC[C@]2(c3nc[nH]n3)CC[C@]3(C)[C@H](CC[C@@H]4[C@@]5(C)CC=C(c6ccc(C(=O)O)cc6)C(C)(C)[C@@H]5CC[C@]43C)[C@@H]12`, the 50% effective concentration (EC50) was above 0.1 µM. Consider `C=C(C)[C@@H]1CC[C@]2(C#Cc3ccsc3-c3nnn[nH]3)CC[C@]3(C)[C@H](CC[C@@H]4[C@@]5(C)CC=C(c6ccc(C(=O)O)cc6)C(C)(C)[C@@H]5CC[C@]43C)[C@@H]12`, for which the 50% effective concentration (EC50) is below 0.1 µM.

Take `C=C(C)[C@@H]1CC[C@]2(c3nnc(CN(C)C)o3)CC[C@]3(C)[C@H](CC[C@@H]4[C@@]5(C)CC=C(c6ccc(C(=O)O)cc6)C(C)(C)[C@@H]5CC[C@]43C)[C@@H]12`: the EC50 is above 0.1 µM. As to `C=C(C)[C@@H]1CC[C@]2(c3nnco3)CC[C@]3(C)[C@H](CC[C@@H]4[C@@]5(C)CC=C(c6ccc(C(=O)O)cc6)C(C)(C)[C@@H]5CC[C@]43C)[C@@H]12`, the concentration giving a half-maximal response (EC50) was above 0.1 µM.

With `C=C(C)[C@@H]1CC[C@]2(c3ncn(CCN4CCS(=O)(=O)CC4)n3)CC[C@]3(C)[C@H](CC[C@@H]4[C@@]5(C)CC=C(c6ccc(C(=O)O)cc6)C(C)(C)[C@@H]5CC[C@]43C)[C@@H]12`, the EC50 is above 0.1 µM. On to `C=C(C)[C@@H]1CC[C@]2(c3ncnn3C)CC[C@]3(C)[C@H](CC[C@@H]4[C@@]5(C)CC=C(c6ccc(C(=O)O)cc6)C(C)(C)[C@@H]5CC[C@]43C)[C@@H]12`, for which the half-maximal effective concentration (EC50) was above 0.1 µM.
